Measurements: US20140010876A1, “PHARMACEUTICAL ADMINISTRATION FORMS COMPRISING 5-CHLORO-N-(METHYL)-2-THIOPHENECARBOXAMIDE” (BAYER PHARMA AKTIENGESELLSCHAFT, priority 2012, published 2014)

Test: solubility of the active compound (I) in water
Format: physicochemical
Method: During the development of formulations, the physicochemical characteristics have to be taken into account in combination with the particular biological properties of the active compound (I). The physicochemical characteristics include, for example, the poor solubility of the active compound (I) in water (about 7 mg/l). The particular biological properties of the active compound (I) are a food-dependent bioavailability (the “food effect”) which, in the case of rapid-release tablet formulations, is noticeable at dosages from about 15 mg, and a limited absorption from the lower sections of the intestine. As a consequence, the desired administration once daily requires specific pharmaceutical formulations releasing the active compound (I) taking into account its biopharmaceutical characteristics, such that on the one hand the active compound (I) is present in an amount sufficient to have a pharmaceutical effect and that on the other hand the active compound (I) is released in a manner such that its challenging properties with respect to solubility, food effect and absorption are overcome.

- solubility: ~7 µg/mL
SMILES: O=C(NC[C@H]1CN(c2ccc(N3CCOCC3=O)cc2)C(=O)O1)c1ccc(Cl)s1 [active compound (I), 5-chloro-N-({(5S)-2-oxo-3-[4-(3-oxo-4-morpholinyl)phenyl]-1,3-oxazolidin-5-yl}methyl)-2-thiophenecarboxamide]
